Article PMC5149029, “New Aspects of Silibinin Stereoisomers and their 3-O-galloyl Derivatives on Cytotoxicity and Ceramide Metabolism in Hep G2 hepatocarcinoma Cell Line” (Iranian Journal of Pharmaceutical Research : IJPR, 2016)
Marks after values point to notes of the source that are not given here.

What was measured:
[1] = test system: Hep G2 cells; assay: Cell viability, MTT colorimetric assay; type: cell-based; details: Hep G2, 48 h
Procedure: The cell line was grown in RPMI-1640 medium supplemented with L-glutamine 2 mM, HEPESNa 25 mM, penicillin 100 U/mL, streptomycin 100 μg/mL and 10% phosphate-buffered saline (FBS) at 37 °C in a humidified atmosphere containing 5% CO2. Hep G2 cells were seeded at 1 × 10^6 cells/mL and sub cultured every 2–3 days after 60–80% confluence was reached. […] For each experiment, the cells were treated separately with increasing concentrations of silibinin derivatives (0, 25, 50, 75, 100, 125, 150, 175 and 200 μM) and incubated for 48 h.
To measure cell viability, the 3-(4,5-dimethylthiazol-2-yl)-2,5-diphenyl tetrazolium bromide (MTT) colorimetric assay was performed as published ([32], [33]). Briefly, Hep G2 cells were seeded onto 96 flat bottom well plates (50 × 10^3 cells/well) and grown overnight. After the incubation period with silibinin isomers, cells were washed twice with phosphate-buffered saline solution and incubated with MTT solution at a final concentration of 0.5 mg/mL for 3 h and then lysed in dimethyl sulfoxide. Optical density was measured at 540 nm and the background absorbance measured at 660 nm was subtracted. Each experiment was replicated separately for three times.

[2] = test system: caspase-3; assay: Caspase-3 activity, colorimetric substrate Ac-DEVD-pNA; type: cell-based, human; details: Hep G2, 48 h, control 0.38
Procedure: (§1) The cell line was grown in RPMI-1640 medium supplemented with L-glutamine 2 mM, HEPESNa 25 mM, penicillin 100 U/mL, streptomycin 100 μg/mL and 10% […] (FBS) at 37 °C in a humidified atmosphere containing 5% CO2. Hep G2 cells were seeded at 1 × 10^6 cells/mL and sub cultured every 2–3 days after 60–80% confluence was reached. To prepare the lysates cells attached to the culture plate were scraped off with a cell scraper and collected in a 1.5 mL tube by centrifugation. The cell pellets were rinsed with PBS, suspended in sterile water, and then lysed by sonication. For each experiment, the cells were treated separately with increasing concentrations of silibinin derivatives (0, 25, 50, 75, 100, 125, 150, 175 and 200 μM) and incubated for 48 h.
The activities of caspase-3 and 9 were measured using colorimetric substrates. Cells were added to a lysis buffer (100 mM HEPES [pH 7.5], 0.1% CHAPS, 1 mM PMSF, 10 mM MDTT, 1 mM EDTA) and placed on ice for 30 min. After the cells were centrifuged at 10,000 × g for 10 min at 4 °C, 50 μg of protein from the supernatants was added to each of the caspase substrates. The colorimetric substrates for caspase-3 and 9 were Ac-DEVD-pNA (Asp-Glu-Val-Asp-pNA) and Ac-LEHD-pNA (N-acetyl-Leu-Glu-His-Asp-pNA), respectively. After a 2 h incubation, to measure p-nitroanilide absorbance was determined at 405 nm ([34]).

[3] = test system: Neutral sphingomyelinase (NSMase); assay: NSMase activity assay (Amplex Red kit); type: cell-based, human; details: for NSMase activity in comparison with control: Hep G2, 125 µM and higher concentrations
Procedure: as §1
Amplex™ Red NSMase Assay Kit (AAT Bioquest®, Inc. product no: 13620) was used to determine NSMases activity. The kit uses Amplite™ Red as a colorimetric probe to indirectly quantify the phosphocholine produced from the hydrolysis of sphingomyelin by NSMase.
Cells were washed with ice cold PBS and homogenized in neutral lysis buffer (20 mM Tris–HCl pH 7.4, 2 mM EDTA, 5 mM EGTA, 1 mM PMSF, 1% protein cocktail inhibitor and 1 mM sodium orthovanadate) for NSMase assays. Samples were kept on ice 15 min and centrifuged at 14,000 × g for 20 min at 4 °C. 100 µL of each supernatant fraction were incubated at 37 °C for 1hour with working solution. The fluorescence count of produced resorophine in the previous step was measured with a fluorescence micro plate reader by using excitation at 540 nm and emission at 590 nm ([36]).

[4] = target: T1, glucosyl ceramide synthase (GCS) (Homo sapiens, UniProt Q16739); assay: GCS activity assay (C6-NBD-ceramide, HPLC); type: cell-based; details: for GCS activity, effect of treatment: Hep G2, 0-200 µM
T1 construct: endogenous in cells; host or cells: Hep G2
T1 sequence (Q16739 1-394): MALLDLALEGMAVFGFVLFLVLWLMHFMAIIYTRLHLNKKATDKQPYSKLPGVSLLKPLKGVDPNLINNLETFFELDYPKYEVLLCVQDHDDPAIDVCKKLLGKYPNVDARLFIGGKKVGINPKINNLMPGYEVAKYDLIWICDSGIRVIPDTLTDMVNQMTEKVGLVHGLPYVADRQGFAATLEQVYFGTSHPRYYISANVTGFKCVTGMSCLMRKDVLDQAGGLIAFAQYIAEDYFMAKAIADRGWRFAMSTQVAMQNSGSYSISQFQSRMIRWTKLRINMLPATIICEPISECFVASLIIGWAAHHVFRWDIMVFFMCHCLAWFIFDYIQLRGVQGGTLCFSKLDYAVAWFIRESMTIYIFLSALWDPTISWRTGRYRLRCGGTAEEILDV
Procedure: as §1
To determine GCS activities, the fluorescent acceptor substrate C6-4-nitrobenzo-2-oxa-1,3-diazole (NBD)-ceramide and a normal-phase HPLC were used. Acceptor substrate, 50 pM of C6-NBD-Cer and 6.5 nM of lecithin were mixed in 100 µL of ethanol and then the solvent was evaporated. Next, 10 µL of water was added and the mixture was sonicated to form liposomes. For the GCS assay, 50 µL of reaction mixture contains 500 µM UDP-Glc, 1mM EDTA, 10 µL of C6-NBD-Cer liposome and 20 µL of an appropriate amount of enzyme in lysis buffer. Addition of conduritol B epoxide (CBE) at 2.5 mM is effective at inhibiting the glycosidase activity. Standard assays were carried out at 37 °C for 1 h. The reaction was stopped by adding 200 µL of chloroform/methanol (2:1, v/v). After a few seconds of vortexing, 5 µL of 500 µM KCl was added and then centrifuged. After the organic phase had dried up, lipids were dissolved in 200 µL of isopropyl alcohol/n-hexane/H2O (55:44:1) and then transferred to a glass vial in auto sampler. A 100 µL aliquot of sample was automatically loaded onto a normal-phase column (Intersil SIL 150A-5, 4.6 x 250 mm, GL Sciences, Japan) and eluted with isopropyl alcohol/n-hexane/H2O (55:44:1) at a flow rate of 2.0 mL/min. Fluorescence was determined using a fluorescent detector (Hitachi L-7480) set to excitation and emission wavelengths of 470 and 530 nm, respectively. The fluorescent peaks were identified by comparing their retention times with those of standards ([37]).

Row | Compound | Cell viability (% of control) ([1]; 25 micro molar) | Cell viability (% of control) ([1]; 50 micro molar) | Cell viability (% of control) ([1]; 75 micro molar) | Cell viability (% of control) ([1]; 100 micro molar) | Cell viability (% of control) ([1]; 125 micro molar) | Cell viability (% of control) ([1]; 150 micro molar) | Cell viability (% of control) ([1]; 175 micro molar) | Caspase-3 (ΔOD 405nm) ([2]; 25 micro molar) | Caspase-3 (ΔOD 405nm) ([2]; 50 micro molar) | Caspase-3 (ΔOD 405nm) ([2]; 75 micro molar) | Caspase-3 (ΔOD 405nm) ([2]; 100 micro molar) | Caspase-3 (ΔOD 405nm) ([2]; 125 micro molar) | Caspase-3 (ΔOD 405nm) ([2]; 150 micro molar) | Caspase-3 (ΔOD 405nm) ([2]; 175 micro molar) | Caspase-3 (ΔOD 405nm) ([2]; 200 micro molar) | NSMase activity with respect to control ([3]; Hep G2, all concentrations (0-200 µM)) | GCS activity, effect of treatment [4] | GCS activity (% of control) ([4]; Hep G2, 200 µM) | Cell viability (% of control) ([1]; 200 micro molar) | NSMase activity in comparison with control [3]
1 | COc1cc([C@@H]2Oc3cc([C@H]4Oc5cc(O)cc(O)c5C(=O)[C@@H]4OC(=O)c4cc(O)c(O)c(O)c4)ccc3O[C@H]2CO)ccc1O [SGB, 3-O-galloyl silybin B] | 91 + 10.0 % of control | 78 + 9.5^* % of control | 65 + 8.6^* % of control | 56 + 7.7^* % of control | 49 + 6.9^* % of control | 35 + 5.1^* % of control | 29 + 4.3^* % of control | 0.45 ± 0.065 ΔOD 405nm | 0.56 ± 0.070 ΔOD 405nm | 0.62 ± 0.081 ΔOD 405nm | 0.78 ± 0.095 ΔOD 405nm | 0.98 ± 0.128 ΔOD 405nm | 1.21 ± 0.160 ΔOD 405nm | 1.53 ± 0.209 ΔOD 405nm | 1.63 ± 0.221 ΔOD 405nm | did not exert any significant change | dose dependent inhibition | 18 % of control | – | –
2 | COc1cc([C@@H]2Oc3cc([C@H]4Oc5cc(O)cc(O)c5C(=O)[C@@H]4O)ccc3O[C@H]2CO)ccc1O [SB, silybin B] | 94 + 10.3 % of control | 89 + 10.5 % of control | 81 + 10.7^* % of control | 70 + 10.0^* % of control | 60 + 7.9^* % of control | 51 + 7.6^* % of control | 45 + 5.1^* % of control | 0.34 ± 0.050 ΔOD 405nm | 0.45 ± 0.060 ΔOD 405nm | 0.58 ± 0.076 ΔOD 405nm | 0.53 ± 0.065 ΔOD 405nm | 0.62 ± 0.095 ΔOD 405nm | 0.73 ± 0.105 ΔOD 405nm | 0.82 ± 0.130 ΔOD 405nm | 0.79 ± 0.096 ΔOD 405nm | – | dose dependent inhibition | – | 40 + 6.0^* % of control | considerable increase
3 | COc1cc([C@H]2Oc3cc([C@H]4Oc5cc(O)cc(O)c5C(=O)[C@@H]4O)ccc3O[C@@H]2CO)ccc1O [SA, silybin A] | 97 + 10.0 % of control | 95 + 10.3 % of control | 89 + 11.4 % of control | 83 + 9.5 % of control | 71 + 8.3^* % of control | 63 + 7.4^* % of control | 52 + 6.0^* % of control | 0.45 ± 0.055 ΔOD 405nm | 0.58 ± 0.080 ΔOD 405nm | 0.65 ± 0.098 ΔOD 405nm | 0.79 ± 0.107 ΔOD 405nm | 0.91 ± 0.133 ΔOD 405nm | 0.98 ± 0.148 ΔOD 405nm | 1.12 ± 0.164 ΔOD 405nm | 1.06 ± 0.152 ΔOD 405nm | – | dose dependent inhibition | – | 47 + 5.5^* % of control | considerable increase
4 | COc1cc([C@H]2Oc3cc([C@H]4Oc5cc(O)cc(O)c5C(=O)[C@@H]4OC(=O)c4cc(O)c(O)c(O)c4)ccc3O[C@@H]2CO)ccc1O [SGA, 3-O-galloyl silybin A] | 96 + 10.5 % of control | 84 + 9.3^* % of control | 73 + 10.7^* % of control | 63 + 8.9^* % of control | 52 + 8.1^* % of control | 44 + 6.0^* % of control | 38 + 5.7^* % of control | 0.35 ± 0.038 ΔOD 405nm | 0.46 ± 0.062 ΔOD 405nm | 0.58 ± 0.070 ΔOD 405nm | 0.67 ± 0.084 ΔOD 405nm | 0.83 ± 0.114 ΔOD 405nm | 0.97 ± 0.134 ΔOD 405nm | 1.12 ± 0.147 ΔOD 405nm | 1.26 ± 0.164 ΔOD 405nm | – | did not indicate any significant changes | – | 33 + 5.1^* % of control | considerable increase
